Test results reported in the supplement of paper PMC5908809.

Legend:
[1] = test system: normal NK cells expanded with K562-aAPC; assay: drug sensitivity score (DSS) (DSS units); higher = more sensitive; extreme values may be limits of the assay; conditions: 72 h; IL-2 2.5 ng/mL
Method: (§1)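 Drug sensitivity and resistance testing on K562-aAPC-expanded normal NK cells: 5 concentrations (10-fold steps over a 10,000-fold range), 72 h at 37 °C, viability by CellTiter-Glo normalised to DMSO and benzethonium chloride controls; DSS from the fitted curve.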

[2] = test system: NK-92 (IL-2 2.5 ng/mL); assay: percent inhibition of viability; higher = more inhibition; conditions: 72 h
[3] = test system: KHYG-1 (IL-2 2.5 ng/mL); assay: as above; conditions: 72 h
[4] = test system: normal primary NK cells, pool 3 (3 donors) (IL-2 2.5 ng/mL); assay: as above; conditions: 72 h
[5] = test system: NKL (IL-2 2.5 ng/mL); assay: as above; conditions: 72 h
[6] = test system: IMC-1 (IL-2 20 ng/mL); assay: as above; conditions: 72 h
[7] = test system: normal primary NK cells, pool 2 (3 donors) (IL-2 2.5 ng/mL); assay: as above; conditions: 72 h
[8] = test system: normal primary NK cells, pool 1 (3 donors), resting (IL-2 0 ng/mL); assay: as above; conditions: 72 h
[9] = test system: normal primary NK cells, pool 1 (3 donors) (IL-2 2.5 ng/mL); assay: as above; conditions: 72 h
[10] = test system: DERL-7 (IL-2 2.5 ng/mL); assay: as above; conditions: 72 h
[11] = test system: SNK-6 (IL-2 2.5 ng/mL); assay: as above; conditions: 72 h
[12] = test system: YT (IL-2 2.5 ng/mL); assay: as above; conditions: 72 h
[13] = test system: NK-YS (IL-2 2.5 ng/mL); assay: as above; conditions: 72 h
[14] = test system: KAI3 (IL-2 2.5 ng/mL); assay: as above; conditions: 72 h
[15] = test system: NK-92 (IL-2 2.5 ng/mL); assay: drug sensitivity score (DSS) (DSS units); higher = more sensitive; extreme values may be limits of the assay; conditions: 72 h
[16] = test system: KHYG-1 (IL-2 2.5 ng/mL); assay: as above; conditions: 72 h
[17] = test system: normal primary NK cells, pool 3 (3 donors) (IL-2 2.5 ng/mL); assay: as above; conditions: 72 h
[18] = test system: NKL (IL-2 2.5 ng/mL); assay: as above; conditions: 72 h
[19] = test system: IMC-1 (IL-2 20 ng/mL); assay: as above; conditions: 72 h
[20] = test system: normal primary NK cells, pool 2 (3 donors) (IL-2 2.5 ng/mL); assay: as above; conditions: 72 h
[21] = test system: normal primary NK cells, pool 1 (3 donors), resting (IL-2 0 ng/mL); assay: as above; conditions: 72 h
[22] = test system: normal primary NK cells, pool 1 (3 donors) (IL-2 2.5 ng/mL); assay: as above; conditions: 72 h
[23] = test system: DERL-7 (IL-2 2.5 ng/mL); assay: as above; conditions: 72 h
[24] = test system: SNK-6 (IL-2 2.5 ng/mL); assay: as above; conditions: 72 h
[25] = test system: YT (IL-2 2.5 ng/mL); assay: as above; conditions: 72 h
[26] = test system: NK-YS (IL-2 2.5 ng/mL); assay: as above; conditions: 72 h
[27] = test system: KAI3 (IL-2 2.5 ng/mL); assay: as above; conditions: 72 h
[28] = test system: normal NK cells expanded with K562-aAPC; assay: percent inhibition of viability; higher = more inhibition; conditions: 72 h, IL-2 2.5 ng/mL
Method: as §1

CO[C@H]1C[C@@H]2CC[C@@H](C)[C@@](O)(O2)C(=O)C(=O)N2CCCC[C@H]2C(=O)O[C@H]([C@H](C)C[C@@H]2CC[C@@H](OC(=O)C(C)(CO)CO)[C@H](OC)C2)CC(=O)[C@H](C)/C=C(\C)[C@@H](O)[C@@H](OC)C(=O)[C@H](C)C[C@H](C)/C=C/C=C/C=C/1C [Temsirolimus] (max concentration tested 100 nM)
Conditions | drug sensitivity score
[1] | 1.25
[15] | 7.04
[16] | 13.4
[17] | 0.84
[18] | 21.6
[19] | 0
[20] | 3.24
[21] | 0.07
[22] | 0.28
[23] | 15.1
[24] | 17.2
[25] | 14.4
[26] | 17.4
[27] | 14.2

percent inhibition of viability [%]
Conditions | 0.01 nM | 0.1 nM | 1 nM | 10 nM | 100 nM
[2] | -7.3 | 7.2 | 12.8 | 33.5 | 36.9
[3] | -0.71 | 3.41 | 21.7 | 58.9 | 48.8
[4] | -9.23 | -18.3 | 1.68 | 12.1 | 12.8
[5] | 5.4 | 32.6 | 52 | 59.1 | 58.7
[6] | 1.04 | 2.24 | -25.1 | -30.5 | -23.9
[7] | -13.6 | -11.5 | 7.96 | 18.8 | 14.9
[8] | -13.5 | -0.02 | 6.4 | 10.2 | 4.95
[9] | -5.13 | 4.99 | 6.83 | 10.7 | 11.2
[10] | 0.65 | 5.41 | 38.2 | 53.8 | 56.5
[11] | 4.31 | 14 | 45.6 | 56 | 55.2
[12] | 0.8 | 5.67 | 35.9 | 50.6 | 55.3
[13] | -1.82 | 16.2 | 44.5 | 54.4 | 59
[14] | -1.9 | 13.1 | 35.1 | 48.4 | 54.7
[28] | 0.06 | 1.82 | 7.35 | 7.61 | 23.3
